# Measurements reported in patent US20110230447A1, “OSTEOGENESIS PROMOTER COMPRISING [4-(METHYLTHIO)PHENYLTHIO]METHANEBISPHOSPHONIC ACID OR PHARMACEUTICALLY ACCEPTABLE SALT THEREOF AS ACTIVE INGREDIENT” (Tohoku University, priority 2008, published 2011).
# “Also recorded” adds a separate entry of the source.
# What was measured:
# MC3T3-E1 cells [1] = assay: Alkaline phosphatase (ALP) activity in osteoblast-like MC3T3-E1 cells; type: cell-based, mouse
# Procedure: FIG. 4 is an effect of MPMBP (1, 10, and 100 μM) on the osteoblast lineage cell lines MC3T3-E1 cells.
# FIG. 5 is an effect of bisphosphonate ([…] bisphosphonate, namely pamidronate, incadronate, and zoledronate. Respectively, 0.1, 1, and 10 μM) on the osteoblast-like cell line MC3T3-E1 cells.
# Using the mouse skull-derived osteoblast-like cell line MC3T3-E1 cells (RIKEN Bio Resource Center, CELL BANK: RCB 1126), with respect to the alkaline phosphatase (ALP) activity, known as one index of osteogenesis, and also known as the index of differentiation of osteoblast precursor cells to osteoblasts, what kind of effects MPMBP has was studied. After MC3T3-E1 cells were cultured in a α-MEM (10% bovine serum supplementation) and after the confluent was reached, under the presence or absence of MPMBP (1, 10, and 100 μM), for 6, 10, or 20 days, they were cultured in the culture plate of 48 wells. After completion of culturing, a cell homogenate was prepared, and using the method by Lowry et al (J Biochem 1954; 207: 19-37), the ALP activity (per well) was measured.
# [2] = system: calvariae (bone organ culture system of a mouse); assay: Bone organ culture system of mouse calvariae, staining and confocal laser scanning microscopy; type: cell-based; conditions: for bone resorption resulting from LPS, size of the resorption cavity: Nomarski images; for production of collagen (type I collagen fibers): MPMBP 100 μM, alendronate 2.0 μM, no heparin, vs control bone (FIG. 9); for production of the type I collagen / bone matrix: zoledronate 2.5 μM compared with MPMBP, presence or absence of LPS (FIG. 8)
# Procedure: Using the bone organ culture system, what kind of effects MPMBP has on production of the bone matrix was studied. From 3-6 day old mice, calvariae were collected aseptically. These were cultured using the Stern and Krieger method (Calcif Tissue hit 1983; 35: 172-17) with DMEM (10% bovine serum supplementation, no supplementation of heparin, supplementation or no supplementation of LPS 10 μg/ml) for 48 hours. After completion of culturing, with the method described by Suzuki, Takeyama et al (J Histochem Cytochem 2005; 53: 1525-1537), a double staining of the type I collagen and alkaline phosphatase (FIG. 6 and FIG. 8), a double staining of the type I collagen and alizarin red (FIG. 7), and an immunohistochemical staining using the type I collagen (FIG. 9) were performed, and using a confocal laser scanning microscope, they were observed.
# The upper panels are Nomarski differential interference contrast images of the bone surface. The middle panels are images of the bone surface after the double staining of the type I collagen and alkaline phosphatase was performed, and the lower panels are images of the bone section after the double staining of the type I collagen and alkaline phosphatase was performed, respectively. Using rhodamine for the type I collagen, red color could be observed, and using a substrate (ELF-97) that fluoresces when dephosphorylated for alkaline phosphatase (stain osteoblasts), the enzyme activity could be observed in green color.
# The upper panels are Nomarski differential interference contrast images of the bone surface. […] The lower panels are images of the bone section after the double staining of the type I collagen and alizarin red was performed, and the collagen fibers could be observed in green color resulting from Alexa Fluor-488 and the bone mineral could be observed in red color resulting from alizarin red.
# After the immunological double staining of the type I collagen and alkaline phosphatase was performed, as was the case with FIG. 6, using Alexa Fluor 594 for the type I collagen, it was stained in red color, and using the substrate (ELF-97) that fluoresces when dephosphorylated for alkaline phosphatase (osteoblasts), the enzyme activity was stained in green color. The upper panels are observation images of the bone surface and the lower panels are images of the bone section.
# [3] = system: maxillary alveolar bone of a rabbit; assay: Local subperiosteal injection at the maxillary alveolar bone of rabbits, pQCT and μCT analysis; type: in vivo
# Procedure: FIG. 2 is a proliferation of the bone induced on the maxillary alveolar bone of a rabbit resulting from local administration of MPMBP (administration of a 1 mM or 10 mM solution every 4 days for 6 times). (pQCT: peripheral Quantitative Computerized Tomography image). A horizontal section in the vicinity of the cervical site of the maxillary molar teeth. Exp: A test side (side to which MPMBP was administered), cont: a control side (side to which 0.9% NaCl was administered). Arrows represent injected sites.
# FIG. 3 is a proliferation of the bone induced on the maxillary alveolar bone of a rabbit resulting from local administration of MPMBP (administration of a 1 mM or 10 mM solution every 4 days for 6 times) (μCT image: microfocus Computerized Tomography image). A forehead cut of the midline region of the right and left maxillary first molars. exp: A test side (side to which MPMBP was administered). cont: A control side (side to which 0.9% NaCl was administered).
# A total of 9 Japanese male rabbits with the average weight of 2.2 kg were used and they were divided into 3 groups of 3 rabbits each. Under the periosteum of the palatal alveolar bone between the teeth of the maxillary first molar and the maxillary second molar on the left side (experiment side) of the domestic rabbits in each group, 50 μl of a 0.1, 1.0, or 10 mM MPMBP solution was injected every 4 days for 6 times (all performed under anesthesia using Nembutal). To the same sites on the opposite side (the right side), 50 μl of a physiological saline solution (0.9% NaCl solution) was injected in the same manner, and was set to be a control. On the 4th day after the final injection, the animals were euthanized with excessive administration of Nembutal, and the maxillary bone was removed and fixed with a 10% neutral formalin solution (pH 7.4). With the alveolar bone in the vicinity of drug administration sites and the palatine bone as the region of interest, 3-dimensional analysis was performed using a pQCT (peripheral Quantitative Computerized Tomography; FIG. 2) and a μCT (microfocus Computerized Tomography; FIG. 3). […] This type of the osteogenesis promoting effect of MPMBP in the living body has not been reported with the existing bisphosphonate compound.
# MC3T3-E1 cells [4] = assay: Expression of osteogenesis-related genes in MC3T3-E1 cells by real-time RT-PCR; type: cell-based, mouse
# From the text: As an experiment to clarify the mechanism of the osteogenesis promoting action of MPMBP, using the osteoblast-based cell line MC3T3-E1 cells, the effect on expression of osteogenesis-related genes was studied using the real-time RT-PCR method. Moreover, the effect was compared with the action of zoledronate.
# In the experiment, the osteoblast-based cell line MC3T3-E1 cells that reached the confluent after cultured with α-MEM (10% bovine serum supplementation) were used. For 3 days, they were cultured (used a dish with the diameter of 60 mm) under the presence of MPMBP (1, 10, or 100 μM) or zoledronate (0.1, 0.5 or 2.00 μM). After completion of culturing, cells were scraped and using Trizol, RNA was extracted. From 5 μg of RNA, cDNA was synthesized, specific primers were set with respect to alkaline phosphatase, the type I-α collagen, osteocalcin, and bone sialoprotein genes, PCR amplification was performed in the thermal cycler, and the amount of expression of the above genes was measured.
# [5] = 1, 10 and 100 μM, cultured 6, 10 or 20 days (FIG. 4)
# [6] = 50 μl of 1.0 mM or 10 mM solution under the periosteum every 4 days for 6 times, vs 0.9% NaCl on the opposite side
# [7] = 0.1, 1 and 10 μM, culture up to 3 weeks (FIG. 5)
smiles,measurement,setting,value
"CSc1ccc(SC(P(=O)([O-])[O-])P(=O)(O)O)cc1.[Na+].[Na+] [MPMBP, [4-(methylthio)phenylthio]-methanebisphosphonic acid.disodium salt]",ALP activity (per well),MC3T3-E1 cells [1]; [5],increase an alkaline phosphatase activity in a dose-dependent manner and with time; also recorded: increased the ALP activity in a dose-dependent manner and with time
same,"bone resorption resulting from LPS, size of the resorption cavity","[2]; 48 hours, LPS, vs control bone (FIG. 7)",the bone resorption was inhibited resulting from LPS and the size of the resorption cavity that was formed from LPS was significantly smaller; also recorded: the bone resorption was inhibited resulting from LPS and the size of the resorption cavity that was formed by LPS was significantly small
same,"production of the bone matrix (type I collagen, Alexa Fluor-488)","[2]; 48 hours, presence or absence of LPS, vs control bone (FIG. 7)",production of the bone matrix (sites in green color) was promoted significantly; also recorded: production of the bone matrix (sites in green color) significantly increased
same,thickness of the bone mineral (alizarin red),"[2]; 48 hours, vs control bone (FIG. 7)",the thickness of the bone mineral (sites in red color) was thick
same,production of the bone matrix (type I collagen),"[2]; MPMBP 25 μM, 48 hours, DMEM, presence or absence of LPS 10 μg/ml, vs control bone (FIG. 6)",production of the bone matrix (sites in red color) was promoted significantly; also recorded: production of the bone matrix (type I collagen: sites in red) significantly increased
same,"bone resorption resulting from LPS, size of the resorption cavity","[2]; MPMBP 25 μM, 48 hours, LPS 10 μg/ml, vs control bone (FIG. 6)",the bone resorption was inhibited resulting from LPS and the size of a resorption cavity that was formed from LPS was significantly smaller; also recorded: the bone resorption was inhibited resulting from LPS and the size of the resorption cavity that was formed by LPS was significantly small
same,production of collagen (type I collagen fibers),[2]; 48 hours,a large amount of thick collagen fibers was produced in a fascicular shape and the bone surface was densely covered
same,concentration indicating the same level of the inhibitory action of the bone resorption in the bone organ culture system,[2]; bone organ culture system,100 µM
same,production of the type I collagen / bone matrix,[2]; 48 hours,significantly promoted production of the bone matrix; also recorded: significantly increased production of the bone matrix
same,bone changes (osteogenesis promoting effect) in the 0.1 mM group,"[3]; 0.1 mM, 50 μl every 4 days for 6 times",the effect was not clear
same,"bone changes, 10 mM group compared to 1.0 mM group","[3]; 10 mM vs 1.0 mM, 50 μl every 4 days for 6 times",stronger for the 10 mM administration group
same,"bone addition to the palatal side of the alveolar bone (proliferation of the alveolar bone), pQCT",[3]; [6],a proliferation of the alveolar bone is observed; also recorded: bone addition to the palatal side of the alveolar bones
same,"thickness of the palatine bone from the alveolar site to the middle of the palate, μCT",[3]; [6],the thickness of the palatine bone is increasing; also recorded: the thickness of the palatine bone increased
same,"expression of alkaline phosphatase, type I-α collagen, osteocalcin and bone sialoprotein genes","MC3T3-E1 cells [4]; MPMBP 100 μM (1, 10, 100 μM tested), 3 days (72 hours) (FIG. 10)",promoted gene expression of all of the above; also recorded: increased significantly in all genes
"NCCCC(O)(P(=O)(O)O)P(=O)(O)O [alendronate, reference compound]",production of collagen (type I collagen fibers),[2]; 48 hours,"production of the collagen increased were observed; however, the degree was small, compared to MPMBP"
O=P(O)(O)C(Cl)(Cl)P(=O)(O)O [clodronate],ALP activity (per well),MC3T3-E1 cells [1]; [5],increase an alkaline phosphatase activity in a dose-dependent manner and with time; also recorded: increased the ALP activity
O=P(O)(O)C(NC1CCCCCC1)P(=O)(O)O [incadronate],ALP activity (per well),MC3T3-E1 cells [1]; [7],the alkaline phosphatase activity is inhibited or the alkaline phosphatase activity is not affected; also recorded: the ALP activity was significantly reduced in high concentration
NCCC(O)(P(=O)(O)O)P(=O)(O)O [pamidronate],ALP activity (per well),MC3T3-E1 cells [1]; [7],the alkaline phosphatase activity is inhibited or the alkaline phosphatase activity is not affected; also recorded: no significant change was observed
"O=P(O)(O)C(O)(Cn1ccnc1)P(=O)(O)O [zoledronate, reference compound]",ALP activity (per well),MC3T3-E1 cells [1]; [7],the alkaline phosphatase activity is inhibited or the alkaline phosphatase activity is not affected; also recorded: the ALP activity was significantly reduced in high concentration
same,production of the type I collagen / bone matrix,[2]; 48 hours,inhibited production of the type I collagen
same,"expression of alkaline phosphatase, type I-α collagen, osteocalcin and bone sialoprotein genes","MC3T3-E1 cells [4]; zoledronate 0.1, 0.5 or 2.00 μM, 3 days (FIG. 11)",no significant change was caused to the amount of expression of these genes
same,"expression of alkaline phosphatase, type I-α collagen, osteocalcin and bone sialoprotein genes","MC3T3-E1 cells [4]; zoledronate 0.1, 0.5 or 2.00 μM, 3 days (FIG. 11), listed as Zoledronate",did not significantly affect gene expression of all of the above
